{"source": "paper PMC4382562", "about": "(Current Chemical Genomics and Translational Medicine, 2015)", "origin": "cited, not measured here", "test_system": "iCell Neurons", "settings": "read-out: Neurite outgrowth IC50 (high content image-based analysis), previously reported", "data": [{"compound": "CCCCCC[C@H]1C(=O)O[C@H](C)[C@H](NC(=O)c2cccc(NC=O)c2O)C(=O)O[C@@H](C)[C@@H]1OC(=O)CC(C)C", "note": "[Antimycin A]", "values": [{"measurement": "IC50", "result": "~13", "unit": "µM"}]}, {"compound": "CN[C@@H]1C[C@H]2O[C@@](C)([C@@H]1OC)n1c3ccccc3c3c4c(c5c6ccccc6n2c5c31)C(=O)NC4", "note": "[Staurosporine]", "values": [{"measurement": "IC50", "result": "~0.9", "unit": "µM"}]}]}
